Results: US9527830B2 (Merck Sharp & Dohme Corp., priority 2011, dated 2016)

What follows are compounds tested against T1, hROMK1 (Kir1.1) (Homo sapiens, UniProt P48048) (assay: ^86Rb^+ Efflux Assay). Conditions: CHO-DHFR- cells stably expressing hROMK1; potency ranges.
T1 construct: expressed in transfected cells
T1 sequence (P48048 1-391): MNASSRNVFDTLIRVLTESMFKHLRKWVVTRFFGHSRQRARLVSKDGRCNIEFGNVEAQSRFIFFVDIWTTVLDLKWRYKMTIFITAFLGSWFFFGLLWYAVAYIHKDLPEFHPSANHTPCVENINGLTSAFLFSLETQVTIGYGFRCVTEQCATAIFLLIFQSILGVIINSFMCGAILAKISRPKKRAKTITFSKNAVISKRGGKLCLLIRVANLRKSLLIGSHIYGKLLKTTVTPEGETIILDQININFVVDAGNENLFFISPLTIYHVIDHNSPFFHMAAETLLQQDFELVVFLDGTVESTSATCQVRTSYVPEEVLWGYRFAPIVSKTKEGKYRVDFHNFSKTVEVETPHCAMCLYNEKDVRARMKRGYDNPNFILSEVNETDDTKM
Assay type: cell-based
Procedure: Several assays may be used to measure functional inhibition of the ROMK channel by compounds of the instant invention. One primary assay that can be used is a functional ^86Rb^+ efflux assay that measures the ability of ROMK to permeate ^86Rb^+, in the absence or presence of test compound. Under control conditions, cells loaded with ^86Rb^+ and incubated in Rb^+-free medium display a time-dependent efflux of the isotope, the rate of which depends on number of functional channels. When cells are incubated in the presence of a channel inhibitor, efflux of ^86Rb^+ is prevented in a concentration-dependent manner, and IC50 values of inhibition by compounds can be accurately determined. This assay has been established with cell lines expressing either human, rat or dog ROMK channels, and can operate in 96- or 384-well format. Importantly, the human, rat, and dog ^86Rb^+ efflux assays can be carried out in the presence of up to 100% serum allowing, therefore, an accurate estimation of the effect of protein binding on the inhibitory activity of compounds of interest. Another ROMK functional assay makes use of the ability of thallium to permeate through open ROMK channels and increase the fluorescence of a dye previously loaded into the cells. Under control conditions, cells loaded with dye and exposed to thallium-containing medium display a time-dependent increase in fluorescence, the rate of which depends on number of functional channels. When cells are incubated in the presence of a channel inhibitor, the increase in fluorescence is attenuated in a concentration-dependent manner, and IC50 values of inhibition by compounds can be accurately determined. This assay has been established with cell lines expressing either human, or rat ROMK channels, and operates in 384-well format. Another assay for evaluation of the compounds of the instant invention and for evaluation of mechanism of action of compounds of Formula I relies on the measurement of the electrical current that is generated as potassium permeates through the channel. For these electrophysiological experiments, three different platforms, IonWorks, QPatch, or manual patch clamp, are used, depending on the experimental protocol under consideration. IonWorks operates in a 384-well format and allows accurate determination of IC50 values for inhibitors.
CHO-DHFR-cells stably expressing hROMK1 (Kir1.1) were grown at 37° C. in a 10% CO2 humidified incubator in Iscove's Modified Dulbecco's Medium (Gibco 12440) supplemented with HT Supplement, Penicillin/Streptomycin/Glutamine, G418 (500 μg/ml) and 10% FBS. Cells were seeded in Sterile and Tissue Culture Treated Packard CulturPlate White Opaque Microplates at a concentration of 5.0E5-7.0E5 cells/ml—PerkinElmer 6005680 (96-well); Corning 3707 (384 well) in complete media containing 1.5 μCi/ml Rubidium-86. Cells were incubated in 37° C.-10% CO2 incubator overnight. On the day of the experiment, the media was removed and cells washed with low K assay buffer. ^86Rb^+ efflux was initiated after addition of assay buffer±test compound followed by 35 min incubation at room temperature. ROMK-sensitive component of efflux was defined in the presence of 10 mM BaCl2. Assay buffer was removed and transferred to a plate and cells were solubilized in the presence of SDS. Radioactivity associated with assay and cell plate was determined.
• 1. Removed cell media and washed cells with low K assay buffer (126.9 mM NaCl, 4.6 mM KCl, 2 mM CaCl2, 1 mM MgCl2, 10 mM Hepes/NaOH; pH 7.4) • 200 μl for 96-well plate; 70 μl for 384-well plate • 2. Added assay buffer (121.5 mM NaCl, 10 mM KCl, 2 mM CaCl2, 1 mM MgCl2, 10 mM Hepes/NaOH; pH 7.4)±test compound to cells • 100 μl for 96-well plate; 50 μl for 384-well plate • 3. Incubated at ambient temperature (22-24° C.) for 35 min • 4.

Row | Compound | IC50 [nM]
1 | N#Cc1cc(/C=C/C2(O)CCN(C(=O)Cc3ccc(-n4cnnn4)cc3)CC2)ccc1F [Example 29, 2-Fluoro-5-[(E)-2-(4-hydroxy-1-{[4-(1H-tetrazol-1-yl)phenyl]acetyl}piperidin-4-yl)ethenyl]benzonitrile] | ≤ 500
2 | CC1Cc2cc(CCC3CCN(C(=O)Cc4ccc(-n5cnnn5)cc4)CC3)ccc2C(=O)O1 (centres unmarked) [Example 80, 3-Methyl-6-[2-(1-{[4-(1H-tetrazol-1-yl)phenyl]acetyl}piperidin-4-yl)ethyl]-3,4-dihydro-1H-isochromen-1-one] | ≤ 200
3 | COc1cc(CCN2CCC(CCc3ccc4c(c3)COC4=O)CC2)ccc1C#N [Example 71, 2-Methoxy-4-(2-{4-[2-(1-oxo-1,3-dihydro-2-benzofuran-5-yl)ethyl]piperidin-1-yl}ethyl)benzonitrile] | ≤ 200
4 | N#Cc1cc(CCC2(O)CCN(C(=O)Cc3ccc(-n4cnnn4)cc3C(F)(F)F)CC2)ccc1F [Example 31, 2-Fluoro-5-[2-(4-hydroxy-1-{[4-(1H-tetrazol-1-yl)-2-(trifluoromethyl)phenyl]acetyl}piperidin-4-yl)ethyl]benzonitrile] | ≤ 500
5 | O=C1OCc2cc(/C=C/C3CCN(C(=O)Cc4ccc5c(c4)COC5=O)CC3)ccc21 [Example 47, 5-[(E)-2-{1-[(1-Oxo-1,3-dihydro-2-benzofuran-5-yl)acetyl]piperidin-4-}ethenyl]-2-benzofuran-1(3H)-one] | ≤ 500
6 | N#Cc1cc(/C=C/C2CCN(C(=O)Cc3ccc4c(c3)COC4=O)CC2)ccc1F [Example 48, 2-Fluoro-5-[(E)-2-{1-[(1-oxo-1,3-dihydro-2-benzofuran-5-yl)acetyl]piperidin-4-yl}ethenyl]benzonitrile] | ≤ 500
7 | COC(=O)C1(CCc2ccc([N+](=O)[O-])cc2)CCN(CCc2ccc([N+](=O)[O-])cc2)CC1 [Example 1, Methyl 1,4-bis[2-(4-nitrophenyl)ethyl]piperidine-4-carboxylate] | ≤ 200
8 | Cc1cc(/C=C/C2CCN(CCc3ccc4c(c3)COC4=O)CC2)ccc1C#N [Example 83] | ≤ 200
9 | O=C1OCc2cc(/C=C/C3CCN(C(=O)Cc4ccc(-n5cnnn5)cc4)CC3)ccc21 [Example 6] | ≤ 200
10 | N#Cc1ccc(CC(=O)N2CCC(CCc3ccc4c(c3)COC4=O)CC2)cc1Br [Example 64, 2-Bromo-4-[2-oxo-2-[4-[2-(1-oxo-3H-isobenzofuran-5-yl)ethyl]-1-piperidyl]ethyl]benzonitrile] | ≤ 500
11 | Cc1c(/C=C/C2CCN(C(=O)Cc3ccc(-n4cnnn4)cc3)CC2)ccc2c1COC2=O [Example 41, 4-Methyl-5-[(E)-2-(1-{[4-(1H-tetrazol-1-yl)phenyl]acetyl}piperidin-4-yl)ethenyl]-2-benzofuran-1(3H)-one] | ≤ 200
12 | O=C(Cc1ccc(-n2cnnn2)cc1)N1CCC(O)(CCc2ccc3nonc3c2)CC1 [Example 8, 1-{4-[2-(2,1,3-Benzoxadiazol-5-yl)ethyl]-4-hydroxypiperidin-1-yl}-2-[4-(1H-tetrazol-1-yl)phenyl]ethanone] | ≤ 500
13 | O=C1OCCc2cc(CCC3CCN(C(=O)Cc4ccc(-n5cnnn5)cc4)CC3)ccc21 [Example 65, 6-[2-(1-{[4-(1H-tetrazol-1-yl)phenyl]acetyl}piperidin-4-yl)ethyl]-3,4-dihydro-1H-isochromen-1-one] | ≤ 200
14 | COc1cc(CC(=O)N2CCC(/C=C/c3ccc4c(c3)COC4=O)CC2)ccc1C#N [Example 52, 2-Methoxy-4-(2-oxo-2-(4-[(E)-2-(1-oxo-1,3-dihydro-2-benzofuran-5-yl)ethenyl]piperidin-1-yl}ethyl]benzonitrile] | ≤ 500
15 | O=C1OCc2cc(CCC3CCN(C(=O)C4CCc5cc(-n6cnnn6)ccc54)CC3)ccc21 (centres unmarked) [Example 72, 5-[2(1-{[5(1H-Tetrazol-1-yl)-2,3-dihydro-1H-inden-yl]carbonyl}piperidin-4-yl)ethyl]-2-benzofuran-1(3H)-one] | ≤ 200
16 | N#Cc1c(F)ccc(C#CC2(O)CCN(C(=O)Cc3ccc(-n4cnnn4)cc3)CC2)c1Cl [Example 39, 2-Chloro-6-fluoro-3-[(4-hydroxy-1-{[4-(1H-tetrazol-1-yl)phenyl]acetyl}piperidin-4-yl)ethynyl]benzonitrile] | ≤ 500
17 | Cc1c(CCC2(O)CCN(C(=O)Cc3ccc(-n4cnnn4)cc3)CC2)ccc(F)c1C#N [Example 37, 6-Fluoro-3-[2-(4-hydroxy-1-{[4-(1H-tetrazol-1-yl)phenyl]acetyl}piperidin-4-yl)ethyl]-2-methylbenzonitrile] | ≤ 500
18 | N#Cc1c(F)ccc(CCC2(O)CCN(C(=O)Cc3ccc(-n4cnnn4)cc3)CC2)c1F [Example 34, 2,6-Difluoro-3-[2-(4-hydroxy-1-{[4-(1H-tetrazol-1-yl)phenyl]acetyl}piperidin-4-yl)ethyl]benzonitrile] | ≤ 500
19 | CC1Cc2cc(/C=C/C3CCN(C(=O)Cc4ccc(-n5cnnn5)cc4)CC3)ccc2C(=O)O1 (centres unmarked) [Example 79, 3-Methyl-6-[(E)-2-(1-{[4-(1H-tetrazol-1-yl)phenyl]acetyl}piperidin-4-yl)ethenyl]-3,4-dihydro-1H-isochromen-1-one] | ≤ 200
20 | N#Cc1cc(CCC2(CO)CCN(C(=O)Cc3ccc(-n4cnnn4)cc3)CC2)ccc1F [Example 26, 2-Fluoro-5-{2-[4-(hydroxymethyl)-1-{[4-(1H-tetrazol-1-yl)phenyl]acetyl}piperidin-4-yl]ethyl}benzonitrile] | ≤ 500
21 | COc1cc(C#N)c(F)cc1CC(=O)N1CCC(CCc2ccc3c(c2)COC3=O)CC1 [Example 70, 2-Fluoro-5-methoxy-4-(2-oxo-2-{4-[2-(1-oxo-1,3-dihydro-2-benzofuran-5-yl)ethyl]piperidin-1-yl}ethyl)benzonitrile] | ≤ 200
22 | O=C1OCc2cc(OCC3CCN(C(=O)Cc4ccc(-n5cnnn5)cc4)CC3)ccc21 [Example 55, 5-[(1-{[4-(1H-Tetrazol-1-yl)phenyl]acetyl}piperidin-4-yl)methoxy]-2-benzofuran-1(3H)-one] | ≤ 200
23 | O=C(Cc1ccc(-n2cnnn2)cc1)N1CCC(/C=C/c2ccc3nonc3c2)CC1 [Example 5] | ≤ 200
